Measured values from US6461997B1, “Triazole sulfones having herbicidal activity” (Monsanto Technology LLC, priority 1999, dated 2002).

Columns and labels:
[1] = test system: SORVU (shattercane); experiment: Pre-emergence herbicidal activity, warm season; assay type: in vivo, Sorghum vulgare; conditions: GR80 = lowest tested rate (300, 100, 30, 10 g/ha) with 80% or greater inhibition; approx. 14 days after treating; 30/21° C.
Procedure, shortened: (§1)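 Seeds sown in sterilised fertilised topsoil received surface-applied compound in 50:50 acetone/water, typically at 300, 100, 30 and 10 g/ha, then greenhouse-grown at 30/21° C (warm-season species) or 18/13° C (cool-season species). Percent inhibition versus untreated plants was scored at about 14 days, giving GR80; an asterisk marks activity short of 80% at the top rate.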

[2] = test system: AVEFA (wild oat); experiment: Pre-plant incorporated (PPI) herbicidal activity, cool season; assay type: in vivo, Avena fatua; conditions: for inhibition at 10 g/ha / inhibition at 30 g/ha / inhibition at 100 g/ha / inhibition at 300 g/ha / inhibition at 900 g/ha: Avena fatua, read-out: Percent inhibition AVEFA; for inhibition at 10 g/ha / inhibition at 30 g/ha / inhibition at 100 g/ha / inhibition at 300 g/ha / inhibition at 900 g/ha / Percent inhibition AVEFA: weed, PPI application; for PPI activity GR80, AVEFA: pre-plant incorporated, lowest tested rate with 80% or greater inhibition, about 14 days
Procedure: (§2) In another set of tests, the pre-plant incorporated (PPI) activity of compounds of this invention was evaluated on the same species as for the pre-emergence tests described above. In the PPI tests the following procedure, designed to simulate PPI application, was used.
(§3) A pre-prepared topsoil mixture (described above) was placed in a pot and compacted to a depth of 1.0 to 1.25 cm from the top of the pot. Seeds of each of several monocotyledonous and dicotyledonous annual plant species were placed on top of the soil. A sufficient quantity of soil to cover the seeds and level fill the pot was weighed into an open container. A known amount of the test compound was dissolved or suspended in an organic solvent and applied by spraying to this cover soil. The cover soil was thoroughly mixed to distribute the test compound throughout the cover soil, and was then applied as a cover layer over the seeds. Untreated soil was used as a cover layer for control pots. After treatment the plants were placed in a greenhouse where they received 0.64 cm of overhead irrigation. All subsequent watering consisted of a light overhead mist and/or subirrigation as needed for germination and growth. Tables 9 and 10 below relate to warm season plant species which were placed after pre-emergence treatment in a greenhouse with a 30/21° C. day/night temperature regime. Tables 11 and 12 below relates to cool season plant species placed after pre-emergence treatment in a greenhouse or growth chamber with an 18/13° C. day/night temperature regime. Only the compounds of Examples 1, 6, 8, 11, 13 and 15-20 were included in PPI tests.
(§4) Approximately 14 days after planting and treating, the plants were observed and herbicidal efficacy recorded as percent inhibition by comparison with untreated plants.

[3] = test system: PANMI (wild proso millet); experiment: Pre-emergence herbicidal activity, warm season; assay type: in vivo, Panicum miliaceum; conditions: GR80 = lowest tested rate (300, 100, 30, 10 g/ha) with 80% or greater inhibition; approx. 14 days after treating; 30/21° C.
Procedure, shortened: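 Pre-emergence soil-surface spray; rates 300/100/30/10 g/ha; acetone:water 50:50 diluent. Warm-season species (PANMI, DIGSA) grown at 30/21 °C, cool-season species (ALOMY, POLCO) at 18/13 °C. Inhibition scored ~14 d after treatment versus untreated controls → GR80.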

[4] = test system: ALOMY (blackgrass); experiment: Post-emergence herbicidal activity, cool season; assay type: in vivo, Alopecurus myosuroides; conditions: abraded plants sprayed at 300, 100, 30 and 10 g/ha; about 14 days after treatment
Procedure, shortened: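 Seeds sown in topsoil, covered with 50% topsoil/50% Rediearth™, subirrigated. At 9 to 14 days, foliage abraded, then sprayed at 300, 100, 30 or 10 g/ha in acetone/water 50:50. Plants held at 18/13° C. day/night, rated for % inhibition at ~14 days, GR80 assigned.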

[5] = test system: rice (ORYSA); experiment: Selectivity test, PPI, warm season crop; assay type: in vivo, Oryza sativa; conditions: PPI application; for inhibition at 10 g/ha / inhibition at 30 g/ha / inhibition at 100 g/ha / inhibition at 300 g/ha / inhibition at 900 g/ha: Oryza sativa, read-out: Percent inhibition ORYSA
Procedure: as §3, §4
Additional pre-emergence and PPI tests were conducted by the procedures described above, on warm and cool season weed species in the presence of crop species, to assess herbicidal selectivity. Crop species included in warm season tests were corn (Zea mays, ZEAMX), rice (Oryza sativa, ORYSA) and soybean (Glycine max, GLYMX). Crop species included in cool season tests were wheat (Triticum aestivum, TRZAW), barley (Hordeunm vulgare, HORVX) and oilseed rape (Brassica napus, BRSNS).
Tables 15 and 16 relate to pre-emergence and PPI tests respectively on warm season species. Table 17 relates to pre-emergence tests on cool season species.

[6] = test system: POAAN (annual bluegrass); experiment: Pre-plant incorporated (PPI) herbicidal activity, cool season; assay type: in vivo, Poa annua; conditions: weed, PPI application; for inhibition at 10 g/ha / inhibition at 30 g/ha / inhibition at 100 g/ha / inhibition at 300 g/ha / inhibition at 900 g/ha: Poa annua, read-out: Percent inhibition POAAN
Procedure: as §2, §3, §4

[7] = test system: SETFA (giant foxtail); experiment: Pre-emergence herbicidal activity, warm season; assay type: in vivo, Setaria faberi; conditions: GR80 = lowest tested rate (300, 100, 30, 10 g/ha) with 80% or greater inhibition; approx. 14 days after treating; 30/21° C.
Procedure, shortened: as §1

Row | SMILES | Pre-emergence activity (GR80) SORVU [1] | inhibition at 10 g/ha ([2]; 10 g/ha) | inhibition at 30 g/ha ([2]; 30 g/ha) | inhibition at 100 g/ha ([2]; 100 g/ha) | inhibition at 300 g/ha ([2]; 300 g/ha) | inhibition at 900 g/ha ([2]; 900 g/ha) | PPI activity GR80, AVEFA [2] | Pre-emergence activity (GR80) PANMI [3] | Post-emergence activity GR80, ALOMY [4] | inhibition at 10 g/ha ([5]; 10 g/ha) | inhibition at 30 g/ha ([5]; 30 g/ha) | inhibition at 100 g/ha ([5]; 100 g/ha) | inhibition at 300 g/ha ([5]; 300 g/ha) | inhibition at 900 g/ha ([5]; 900 g/ha) | inhibition at 10 g/ha ([6]; 10 g/ha) | inhibition at 30 g/ha ([6]; 30 g/ha) | inhibition at 100 g/ha ([6]; 100 g/ha) | inhibition at 300 g/ha ([6]; 300 g/ha) | inhibition at 900 g/ha ([6]; 900 g/ha) | Pre-emergence activity (GR80) SETFA [7] | also measured
1 | C=CCC(F)(F)S(=O)(=O)c1ncn(C(=O)N(CC)CC)n1 [Example 17, 1-(N,N-diethylcarbamoyl)-3-[(1,1-difluoro-3-butenyl)sulfonyl]-1,2,4-triazole] | 100 g/ha | 0% | 15% | 50% | 75% | 100% | 100 g/ha | 100 g/ha | [empty] | 0% | 0% | 0% | 30% | 60% | 10% | 60% | 70% | 95% | 100% | 100 g/ha | –
2 | C=C(C)CC(F)(F)S(=O)(=O)c1ncn(C(=O)N(CC)CC)n1 [Example 18] | * (activity observed, at least at highest rate, but <80% inhibition) | 0% | 0% | 10% | 50% | 99% | 300 g/ha | 30 g/ha | [empty] | 0% | 0% | 0% | 15% | 10% | 20% | 50% | 65% | 80% | 100% | 100 g/ha | –
3 | C=C(Br)CC(F)(F)S(=O)(=O)c1ncn(C(=O)N(CC)CC)n1 [Example 19] | 300 g/ha | 0% | 0% | 30% | 70% | 60% | 300 g/ha | 100 g/ha | [empty] | 0% | 0% | 0% | – | 20% | 0% | 0% | 10% | 100% | 100% | 300 g/ha | –
4 | C=C(CC(F)(F)S(=O)(=O)c1ncn(C(=O)N(CC)CC)n1)C[Si](C)(C)C [Example 20] | 300 g/ha | – | – | – | – | – | 300 g/ha | 100 g/ha | [empty] | – | – | – | – | – | – | – | – | – | – | 100 g/ha | Percent inhibition AVEFA ([2]; 10 g/ha): 0%; Percent inhibition AVEFA ([2]; 30 g/ha): 0%; Percent inhibition AVEFA ([2]; 100 g/ha): 0%; Percent inhibition AVEFA ([2]; 300 g/ha): 0%; Percent inhibition AVEFA ([2]; 900 g/ha): 60%; Percent inhibition ORYSA ([5]; 10 g/ha): 0%; Percent inhibition ORYSA ([5]; 30 g/ha): 0%; Percent inhibition ORYSA ([5]; 100 g/ha): 0%; Percent inhibition ORYSA ([5]; 300 g/ha): 10%; Percent inhibition ORYSA ([5]; 900 g/ha): 40%; Percent inhibition POAAN ([6]; 10 g/ha): 0%; Percent inhibition POAAN ([6]; 30 g/ha): 30%; Percent inhibition POAAN ([6]; 100 g/ha): 60%; Percent inhibition POAAN ([6]; 300 g/ha): 90%; Percent inhibition POAAN ([6]; 900 g/ha): 99%
